Laboratory results published in patent US20130108563A1, “COMPOSITIONS COMPRISING AT LEAST ONE AQUEOUS PHASE AND AT LEAST ONE FATTY PHASE WHICH COMPRISES AVERMECTIN COMPOUNDS” (Galderma S.A., priority 2006, published 2013).

Key:
[1] = Maximum solubility of ivermectin in oily-phase excipients; assay type: physicochemical; settings: T1 hour, ambient temperature
Protocol: (§1) Maximum solubility of ivermectin at T1 hour at ambient temperature (AT) in various oily-phase excipients and 1 month stability at AT and T40° C.

[2] = 1-month stability of ivermectin in oily-phase excipients; assay type: physicochemical
Protocol: as §1

ivermectin
Maximum solubility of ivermectin % (w/w) ([1]; in C12-C15 alkyl benzoate): 1.6 % (w/w)
Maximum solubility of ivermectin % (w/w) ([1]; in Diisopropyl adipate): 10.4 % (w/w)
Maximum solubility of ivermectin % (w/w) ([1]; in Guerbet alcohol): 2.5 % (w/w)
Maximum solubility of ivermectin % (w/w) ([1]; in PPG 15 stearyl ether): 3.3 % (w/w)
1-month stability at 40° C. ([2]; in Diisopropyl adipate): Stable
1-month stability at AT ([2]; in Diisopropyl adipate): Stable
1-month stability at 40° C. ([2]; in PPG 15 stearyl ether): Stable
1-month stability at AT ([2]; in PPG 15 stearyl ether): Stable
